Legend:
Assay type in all cases: physicochemical
[1] = Moisture sorption/desorption analysis
Experimental: Moisture sorption/desorption data were collected on a VTI SGA-100 Vapor Sorption Analyzer. Sorption and desorption data were collected over a range of 5% to 95% relative humidity (RH) at 10% RH intervals under a nitrogen purge. Samples were not dried prior to analysis. Equilibrium criteria used for analysis were less than 0.0100% weight change in 5 minutes, with a maximum equilibration time of 3 hours if the weight criterion was not met. Data were not corrected for the initial moisture content of the samples. NaCl and PVP were used as calibration standards. Moisture sorption and desorption study was conducted on a sample of Form A+B. The sample was prepared by crashed cooling crystallization (Example 3, section A.6) of the polymorphic forms from a ethanol:water (95:5) solution of Compound I. The moisture sorption and desorption study was conducted according to the procedures outlined in Example 3, section B. 10. The data collected is plotted in FIG. 13 and summarized in Table L. Moisture sorption and desorption study was conducted on a sample of Form E. The sample was prepared by solvent/antisolvent crystallization (Example 3, section A.7) by the addition of acetonitrile to Compound I in water. The moisture sorption and desorption study was conducted according to the procedures outlined in Example 3, section B. 10. The data collected is plotted in FIG. 23 and summarized in Table M. Moisture sorption and desorption study was conducted on a sample of Amorphous Form. The sample was prepared by lyophilolization of a solution of Compound I in water (Example 3, section A.9). The moisture sorption and desorption study was conducted according to the procedures outlined in Example 3, section B. 10.

[2] = Approximate solubility of Compound I in different solvents; conditions: most solvents, with the exceptions of DMF, methanol, TFE, water and water:solvent mixtures
Experimental: Compound I prepared by the method described in Example 1 was used for the solubility study. Solvents and other reagents were of ACS or HPLC grade and were used as received.
A weighed sample (typically about 20-25 mg) of Compound I was treated at ambient temperature with aliquots (typically ≧50 μL) of the test solvent with sonication between additions. Solvents were either reagent or HPLC grade. Solubility was estimated from the total volume of solvent used to obtain a clear solution, as determined by visual inspection. Solubility is expressed as “less than” when dissolution was not observed. If dissolution occurred after the last aliquot was added then solubility is expressed as “greater than or equal to” (≧). The actual solubilities may be greater than determined, due to over addition of solvent (large aliquots) or slow dissolution rates. Approximate solubilities of Compound I are summarized in Table A. The solubility values have been rounded to the nearest whole number and are reported to the nearest mg/mL.

[3] = Relative humidity stressing experiments (form by XRPD); conditions: for Form by XRPD after relative humidity stressing: 29 days
Excerpt: Samples of Compound I were placed uncovered in approximately 58%, 88%, and 97% relative humidity jars. The samples were stored in the jars for approximately 8 days. The solids were collected and analyzed by XRPD for form identification. Aliquots of Form A of Compound I were stored under approximately 50% and 97% relative humidity for 29 days. An aliquot of a mixture of Form A+B was stressed at 88% relative humidity for 23 days. Amorphous Form was stressed at 58% and 88% relative humidity for 23 days.

Cn1c(=O)cc(N2CCC[C@@H](N)C2)n(Cc2ccccc2C#N)c1=O.O=C(O)CCC(=O)O [Amorphous Form]
Weight lost during sorption ([1]; at 75% relative humidity): Approximately 7%

Cn1c(=O)cc(N2CCC[C@@H](N)C2)n(Cc2cc(F)ccc2C#N)c1=O [Compound I, 2-[6-(3-amino-piperidin-1-yl)-3-methyl-2,4-dioxo-3,4-dihydro-2H-pyrimidin-1-ylmethyl]-4-fluoro-benzonitrile succinate]
XRPD Form post MB ([1]; lyophilized sample from H2O solution): low crystallinity A
XRPD Form post MB ([1]; sample crystallized from H2O/ACN): A + small quantity of E
XRPD Form post MB ([1]; sample prepared by CC from EtOH:H2O (95:5)): A + B
Solubility (in words) [2]: Poor solubility

Cn1c(=O)cc(N2CCC[C@@H](N)C2)n(Cc2cc(F)ccc2C#N)c1=O.O=C(O)CCC(=O)O [Form A]
Stability (conclusion from characterization data) ([3]; ambient conditions): stable at ambient conditions
Form by XRPD after relative humidity stressing ([3]; approximately 50% and 97% relative humidity): Form A
Form by XRPD after relative humidity stressing ([3]; approximately 58% and 97% relative humidity): did not exhibit form changes
